Inhibition and Maximum coronary flow data for six molecules are collected here from US3936439A, “2,6-Diaminonebularine derivatives” (Takeda Chemical Industries, Ltd., priority 1972, dated 1976).

One experiment deals with rat platelets. Nature of the experiment: Test for the action to inhibit the aggregation of rat platelets caused by adenosine-5'-diphosphate (method of Born and Cross). The experiment is classed as cell-based. The following applies: read-out: Inhibitory action (%). An excerpt: Test for the action to inhibit the aggregation of rat platelets caused by adenosine-5'-diphosphate

The test system of a further experiment is coronary artery. Nature of the experiment: Test for coronary dilating action (intracoronary administration, coronary blood flow in anaesthetized dogs). The class given is in vivo. Conditions: 10 μg./dog directly into the coronary artery, potency of adenosine taken as unity. The protocol: Each of dogs weighing 7 to 17 kilograms was anaesthetized with pentobarbital sodium salt (30 mg./kg., intravenously) and under supportive respiration, a left thoractomy was performed at the fifth interspace.
The heart of each animal was exposed and perfused with the blood guided from the animal's own left carotid artery to the left coronary artery circumflex through a polyethylene catheter. The coronary blood flow was measured with an electromagnetic flowmeter interposed in the external phase of the circuitry.
Each of the test compounds was administered directly into the coronary artery through the polyethylene catheter at a dose of 10 μg./dog. The potency of each compound was expressed with the potency of adenosine being taken as unity.

[1] abbreviates: rat platelet-rich plasma, ADP-induced aggregation, concentration 15 μg/ml.
Where [2] appears, read: rat platelet-rich plasma, ADP-induced aggregation, concentration 74 μg/ml.
The mark [3] stands for this setting: rat platelet-rich plasma, ADP-induced aggregation, concentration 370 μg/ml.

Read-outs that look alike come from different tables or passages of the source.

Take `Nc1nc(N)c2ncn([C@@H]3O[C@H](CO)[C@@H](O)[C@H]3O)c2n1` [2,6-Diaminonebularine, 2,6-diaminonebularine]: the inhibition at 15 µg/mL in the experiment with rat platelets (setting [1]) worked out at 0%. Moreover, the inhibition at 74 µg/mL in the experiment with rat platelets (setting [2]) is 0%. In addition, the inhibition at 370 µg/mL in the experiment with rat platelets (setting [3]) came to 0%. The same molecule showed a Maximum coronary flow in the experiment on coronary artery of 0.50.

In the experiment on coronary artery, `COc1ccc(Nc2nc(N)c3ncn([C@@H]4O[C@H](CO)[C@@H](O)[C@H]4O)c3n2)cc1` [N^2-(p-methoxyphenyl)-2,6-diaminonebularine] displayed a Maximum coronary flow of 2.37.

Turning to `Nc1nc(Nc2ccccc2)nc2c1ncn2[C@@H]1O[C@H](CO)[C@@H](O)[C@H]1O` [N^2 -Phenyl-2,6-diaminonebularine, N^2-phenyl-2,6-diaminonebularine], in the experiment on rat platelets (setting [1]), the inhibition at 15 µg/mL is -38%. In addition, the inhibition at 74 µg/mL in the experiment on rat platelets (setting [2]) was -52%. The inhibition at 370 µg/mL in the experiment with rat platelets (setting [3]) was -85%. The molecule further returned a Maximum coronary flow in the experiment with coronary artery of 6.75.

In the case of `Nc1nc(NC2CCCCC2)nc2c1ncn2[C@@H]1O[C@H](CO)[C@@H](O)[C@H]1O` [N^2 -Cyclohexyl-2,6-diaminonebularine, N^2-cyclohexyl-2,6-diaminonebularine], in the experiment with rat platelets (setting [1]), the inhibition at 15 µg/mL is -32%. Moreover, the inhibition at 74 µg/mL in the experiment with rat platelets (setting [2]) is -60%. The inhibition at 370 µg/mL in the experiment with rat platelets (setting [3]) was -95%. The molecule also displayed a Maximum coronary flow in the experiment on coronary artery of 2.20.

For `CCNc1nc(N)c2ncn([C@@H]3O[C@H](CO)[C@@H](O)[C@H]3O)c2n1` [N^2 -Ethyl-2,6-diaminonebularine, N^2-ethyl-2,6-diaminonebularine], in the experiment with rat platelets (setting [1]), the inhibition at 15 µg/mL was -11%. In the experiment on rat platelets (setting [2]), the inhibition at 74 µg/mL is -21%. In the experiment with rat platelets (setting [3]), the inhibition at 370 µg/mL is -40%. For the same molecule, the Maximum coronary flow with coronary artery is 0.91.

Turning to `Nc1ncnc2c1ncn2[C@@H]1O[C@H](CO)[C@@H](O)[C@H]1O` [Adenosine], in the experiment with rat platelets (Rattus norvegicus, Platelet), the inhibition at 15 µg/mL is 0%, the inhibition at 74 µg/mL worked out at 0% and the inhibition at 370 µg/mL turned out to be 0%. For the same molecule, the Maximum coronary flow in the experiment with coronary artery is reported as 1.00.
